In patent US11400106B2, “Methods for inhibiting microbe growth” (priority 2018, dated 2022):
Where two headings read alike, the source gives them in different places.

Legend:
[1] = test system: S. aureus; experiment: FIC index of pentamidine combined with various salts (checkerboard); format: cell-based, Staphylococcus aureus; conditions: combination of pentamidine isethionate with each salt; FICI≤0.5 synergy, 1-2 additivity, >4 antagonism
Procedure: (§1) In the following experiments, bacterial cells were cultured in 96-well microtiter plates in cation-adjusted Mueller-Hinton Broth (MHB) for 18 h at 37° C. The main strains used were E. coli (K-12 BW25113) (placed in stationary incubator) and S. aureus (Newman Strain) (incubated at 250 r.p.m). Knockout strains (ΔtolcC and ΔychM) were used from the Keio knockout collection (Baba et al., Construction of Escherichia coli K-12 in-frame, single-gene knockout mutants: the Keio collection. Mol Syst Biol 2, 2006 0008, doi:10.1038/msb4100050 (2006)). For MIC determination and checkerboard analyses, Clinical & Laboratory Standards Institute (CLSI) protocol was used. […] DiSC3 loading of S. aureus cells was performed as previously described (Farha et al., Collapsing the proton motive force to identify synergistic combinations against Staphylococcus aureus. Chemistry & biology 20, 1168-1178, doi:10.1016/j.chembiol.2013.07.006 (2013)). CCCP concentration of 20 μM was used. pH adjustments were made by addition of HCl or NaOH. INT assay and ATP bioluminescence assays were performed as previously described (Farha et al., Collapsing the proton motive force to identify synergistic combinations against Staphylococcus aureus. Chemistry & biology 20, 1168-1178, doi:10.1016/j.chembiol.2013.07.006 (2013)). For chemical-genomic studies, the Keio library was grown overnight in cation-adjusted MHB broth, in 384-well plates. From these, treatment plates (25 mM sodium bicarbonate, or a sterile water control) were inoculated and grown for 15 hours at 37° C., in a stationary incubator. Data was normalized according to Mangat et al (Mangat et al., Rank ordering plate data facilitates data visualization and normalization in high-throughput screening. J Biomol Screen 19, 1314-1320, doi:10.1177/1087057114534298 (2014)), with gene products and GO terms mined from EcoCyc. The GFP promoter library (Keseler et al., EcoCyc: fusing model organism databases with systems biology. Nucleic Acids Res 41, D605-612, doi:10.1093/nar/gks1027 (2013)) was grown for 18 hours at ambient temperature with the same inoculation strategy as with the Keio collection. The analysis pipeline of Zaslaver et al (Zaslaver et al., A comprehensive library of fluorescent transcriptional reporters for Escherichia coli. Nat Methods 3, 623-628, doi:10.1038/nmeth895 (2006)) was used to generate maps of promoter activity, from which lists of promoters with increased or decreased activity were compiled.

[2] = test system: E. coli; experiment: microbe, parasite or virus in culture; format: cell-based, Escherichia coli; conditions: for MIC: Escherichia coli, 18 h, read-out: MIC, E. coli, MHB−
[3] = test system: S. aureus; experiment: microbe, parasite or virus in culture; conditions: for MIC: Staphylococcus aureus, 18 h, read-out: MIC, S. aureus, MHB−; for effect of 25 mM sodium bicarbonate on antibacterial activity: S. aureus, result in words
[4] = test system: E. coli; experiment: Checkerboard microdilution with sodium bicarbonate against E. coli; format: cell-based, Escherichia coli
Procedure: as §1
(§2) The effect of sodium bicarbonate on the activity of various antibacterial agents was investigated. Clinical isolates of various bacteria were obtained from the American Type Culture Collection (“ATCC”) and the International Health Management Associates (“IHMA”). Fractional inhibitory concentration indices (FICIs) were determined by setting up standard checkerboard broth microdilution assays in 96-well microtiter plates with serially diluted 8 (or 10) concentrations of each drug (sodium bicarbonate and the antibacterial agent). The protocol for checkerboard analyses was based on the CLSI guidelines. Plates were incubated at 37° C. for 18 hours, and optical density was read at 600 nm. At least 3 replicates were done for each query compound.
(§3) The FIC index (FICI) is the sum of the two FICs. Chemical-chemical interactions with ΣFIC of less or equal to 0.5 were deemed synergistic.
(§4) As validation, three of the antibiotic agents were further tested with checkerboard analyses. Checkerboard broth microdilution assays were set up in 96-well microtiter plates with serially diluted 8 (or 10) concentrations of each compound (sodium bicarbonate and the antibiotic). The protocol for checkerboard analyses was based on the CLSI guidelines. Plates were incubated at 37° C. for 18 hours, and optical density was read at 600 nm. At least 3 replicates were done for each query compound.

[5] = test system: S. aureus; experiment: Checkerboard microdilution with sodium bicarbonate against S. aureus; format: cell-based, Staphylococcus aureus
Procedure: as §1, §2, §3, §4

[6] = test system: S. aureus; experiment: Checkerboard microdilution with nigericin; format: cell-based, Staphylococcus aureus
From the text: Shown are microdilution checkerboard analyses, where the extent of inhibition is shown as a heat plot, such that the darkest checkerboard square represents full bacterial growth.

[7] = From the text: PMF is driven in part by a transmembrane gradient where the periplasmic side of the membrane has a greater concentration of protons. Thus, the addition of buffering agents to alter the external pH can have a significant effect on PMF. […] Steps were taken throughout the studies to confirm that bicarbonate supplemented media were at pH 7.4, and adjusted where necessary.
[8] = test system: P. aeruginosa; experiment: Susceptibility testing of P. aeruginosa clinical isolates (n=92); format: cell-based, Pseudomonas aeruginosa; conditions: P. aeruginosa (n=92); comparators in the absence of bicarbonate
Procedure: (§5) This study included one hundred (n=100) clinical isolates of methicillin-resistant Staphylococcus aureus (MRSA) and ninety-two (n=92) clinical isolates of P. aeruginosa. All samples were collected from patients at Hamilton Health Sciences hospitals (Hamilton, Ontario, Canada). Isolates, regardless of site of infection, were selected for study if they were resistant to three or more antibiotics. The isolates were cultured on plates and subsequently tested for antimicrobial susceptibility. Initial culture and antibiotic susceptibility testing were performed by Hamilton General Hospital General Microbiology Laboratory using a VITEK 2 Automated System and its Advanced Expert System (bioMerieux) and were compliant with Clinical & Laboratory Standards Institute (CLSI) antibiotic susceptibility testing formulations. Both quantitative minimum inhibitory concentration (MIC) and CLSI breakpoints were reported for each antibiotic. Additionally, a total of 7 conjunctival-sourced ocular isolates of Streptococcus pneumoniae collected by the International Health Management Associates (IHMA) from various locations in the United States were used in the study.
(§6) Antimicrobial sensitivity of the pathogenic strains was determined in compliance with the CLSI protocol. Mueller-Hinton agar plates were used to streak out bacterial species and the direct colony suspension method for inoculum preparation was used to make a suspension of the organism in saline to the density of a McFarland 0.5 turbidity standard. Cation-adjusted Mueller-Hinton broth (CA-MHB) manufactured according to ISO technical standard was used for susceptibility testing in standard 96-well microdilution plates. All antibiotics were purchased as powders from Sigma-Aldrich Canada Co. (Oakville, Canada) and dissolved in appropriate solvent to provide stock solutions as instructed by the manufacturer. Desired test antibiotic solutions were diluted in solvent at a highest test concentration resulting in 256 μg/mL. Where sodium bicarbonate was used, aqueous sterile-filtered sodium bicarbonate solution (7.5% stock) from Sigma-Aldrich Canada Co. (Oakville, Canada) was diluted to the desired concentration in CAMHB. Plates were incubated for 18 hours at 37° C. and read at 600 nm on a Tecan, infinite M1000 PRO plate reader. In accordance with CLSI, methods with appropriate medium supplements for fastidious streptococci (2.5% lysed horse blood, Innovative Research, Inc., Novi, Mich.) were used. […] All MICs in the study were conducted in duplicate.

[9] = test system: methicillin-resistant Staphylococcus aureus (MRSA); experiment: Susceptibility testing of MRSA clinical isolates (n=100); format: cell-based; conditions: MRSA (n=100); comparators in the absence of bicarbonate
Procedure: as §5, §6

[10] = antibiotic agents, MHB in the absence of sodium bicarbonate
[11] = E. coli, salt at 25 mM, pH adjusted to 7.4
[12] = antibiotic agents, fold shift in MIC, MHB− vs MHB+
[13] = MHB in the absence of sodium bicarbonate

CC(=O)[O-].[Na+] [Sodium acetate]
FIC Index (with pentamidine in S. aureus) [1]: 2
MIC of dirithromycin in the presence of the salt [2]: 64 µg/mL

CC[C@H]1OC(=O)[C@H](C)[C@@H](O[C@H]2C[C@@](C)(OC)[C@@H](O)[C@H](C)O2)[C@H](C)[C@@H](O[C@@H]2O[C@H](C)C[C@H](N(C)C)[C@H]2O)[C@](C)(O)C[C@@H](C)/C(=N\OCOCCOC)[C@H](C)[C@@H](O)[C@]1(C)O [Roxithromycin]
MIC, S. aureus, MHB+ [3]: 0.5 μg of antimicrobial agent/mL of buffer
MIC [3]: 4 µg/mL
MIC, E. coli, MHB+ [2]: 16 μg of antimicrobial agent/mL of buffer
MIC [2, 10]: > 128 µg/mL
interaction with sodium bicarbonate (checkerboard) [4]: synergistic interactions
interaction with sodium bicarbonate (checkerboard) [5]: synergistic interactions

CC1=CCCC2C1CCC(C)C2(C)CC/C(C)=C/Cn1c[n+](C)c2c(N)ncnc21.[Cl-] (centres unmarked) [I3]
interaction with sodium bicarbonate (checkerboard) [5]: synergistic interactions

O=S(=O)(O)CCO [Isethionic acid]
FIC Index (with pentamidine in S. aureus) [1]: 2
MIC of dirithromycin in the presence of the salt [2, 11]: 128 µg/mL

Spiramycin
MIC, S. aureus, MHB− [3, 10]: 16 μg of antimicrobial agent/mL of buffer
MIC, S. aureus, MHB+ ([3]; antibiotic agents, MHB in the presence of 25 mM sodium bicarbonate): 0.5 μg of antimicrobial agent/mL of buffer
Fold, S. aureus [3, 12]: 16
MIC, E. coli, MHB+ [2]: 64 μg of antimicrobial agent/mL of buffer
MIC, E. coli, MHB− [2, 10]: >128 μg of antimicrobial agent/mL of buffer
Fold, E. coli [2, 12]: 8
interaction with sodium bicarbonate (checkerboard) [4]: synergistic interactions
interaction with sodium bicarbonate (checkerboard) [5]: synergistic interactions

CO[C@@H]1[C@@H](OC(N)=O)[C@@H](O)[C@H](Oc2ccc3c(O)c(NC(=O)c4ccc(O)c(CC=C(C)C)c4)c(=O)oc3c2C)OC1(C)C [Novobiocin]
MIC, S. aureus, MHB+ [3]: 0.5
effect of 25 mM sodium bicarbonate on antibacterial activity [3]: suppressed
MIC [3]: 0.031 µg/mL
effect of 25 mM sodium bicarbonate on antibacterial activity [2]: suppressed
MIC [2, 13]: 32 µg/mL
interaction with sodium bicarbonate (checkerboard) [4]: suppressed
interaction with nigericin (checkerboard) [6]: antagonistic interactions

CC(C)[C@@H]1NC(=O)[C@H](C)OC(=O)[C@@H](C(C)C)NC(=O)[C@@H](C(C)C)OC(=O)[C@H](C(C)C)NC(=O)[C@H](C)OC(=O)[C@@H](C(C)C)NC(=O)[C@@H](C(C)C)OC(=O)[C@H](C(C)C)NC(=O)[C@H](C)OC(=O)[C@@H](C(C)C)NC(=O)[C@@H](C(C)C)OC1=O [valinomycin]
interaction with sodium bicarbonate (checkerboard) [5]: synergistic interactions

O=[N+]([O-])[O-].[Na+] [Sodium nitrate]
FIC Index (with pentamidine in S. aureus) [1]: 2
MIC of dirithromycin in the presence of the salt [2, 11]: 128 µg/mL

[H]/N=C(/N)N[C@H]1[C@H](O)[C@@H](O)[C@H](O[C@@H]2O[C@@H](C)[C@](O)(C=O)[C@H]2O[C@@H]2O[C@@H](CO)[C@H](O)[C@@H](O)[C@@H]2NC)[C@@H](N/C(N)=N\[H])[C@@H]1O [Streptomycin]
MIC, S. aureus, MHB+ [3]: 0.5 μg of antimicrobial agent/mL of buffer
MIC [3]: 2 µg/mL
MIC, E. coli, MHB+ [2]: 0.12 μg of antimicrobial agent/mL of buffer
MIC [2, 10]: 0.5 µg/mL
interaction with sodium bicarbonate (checkerboard) [4]: synergistic interactions
interaction with sodium bicarbonate (checkerboard) [5]: synergistic interactions

O=P([O-])([O-])[O-].[Na+].[Na+].[Na+] [trisodium phosphate]
effect on activity of dirithromycin, pH not adjusted ([7]; pH not adjusted (pH~10)): potentiated the activity of dirithromycin
effect on activity of dirithromycin, pH adjusted ([7]; pH of the medium adjusted to 7.2): loss of synergy

[F-].[Na+] [Sodium fluoride]
FIC Index (with pentamidine in S. aureus) [1]: 1
MIC of dirithromycin in the presence of the salt [2, 11]: 128 µg/mL

COc1c(N2C[C@@H]3CCCN[C@@H]3C2)c(F)cc2c(=O)c(C(=O)O)cn(C3CC3)c12 [Moxifloxacin]
MIC90 comparison of topical ophthalmic antibiotics [8]: resistance
MIC [3]: 0.125 µg/mL
MIC90 comparison of topical ophthalmic antibiotics [9]: resistance
MIC [2, 13]: 0.0313 µg/mL

COc1ccc(-c2n(CC(=O)OC3CC(C)CCC3C(C)C)c3ccccc3[n+]2C)cc1.[Cl-] (centres unmarked) [I2]
interaction with sodium bicarbonate (checkerboard) [5]: synergistic interactions

c1cc2c(cc1C1CCCCC1)c1c3n2CCN=C3CCC1 [I1]
interaction with sodium bicarbonate (checkerboard) [5]: synergistic interactions

CN(C)C(=O)C(CCN1CCC(O)(c2ccc(Cl)cc2)CC1)(c1ccccc1)c1ccccc1 [loperamide]
interaction with sodium bicarbonate (checkerboard) [4]: synergistic interactions

[Cl-].[Na+] [Sodium chloride]
FIC Index (with pentamidine in S. aureus) [1]: 2
MIC of dirithromycin in the presence of the salt [2, 11]: 128 µg/mL

[Br-].[Na+] [Sodium bromide]
FIC Index (with pentamidine in S. aureus) [1]: 2
MIC of dirithromycin in the presence of the salt [2, 11]: 128 µg/mL

OB(O)O [Boric acid]
FIC Index (with pentamidine in S. aureus) [1]: 1
MIC of dirithromycin in the presence of the salt [2]: 128 µg/mL

C[C@@H]1O[C@@H]1P(=O)(O)O [Fosfomycin]
MIC, S. aureus, MHB+ [3]: 64
effect of 25 mM sodium bicarbonate on antibacterial activity [3]: suppressed
MIC [3]: 16 µg/mL
effect of 25 mM sodium bicarbonate on antibacterial activity [2]: suppressed
MIC [2, 13]: 4 µg/mL
interaction with sodium bicarbonate (checkerboard) [4]: suppressed
interaction with nigericin (checkerboard) [6]: antagonistic interactions
